The experiment has as its system Lone star tick larvae (Amblyomma americanum). Briefly: Larval immersion microassay against larval-stage Lone star ticks. Particulars: Amblyomma americanum, read-out: activity (percent larval mortality). The method, then:
The larval immersion microassay was conducted as described in detail in White, et al., J. Med. Entomol. […] Compounds of the invention were formulated in dimethylsulfoxide (DMSO) to prepare a stock solution at a concentration of at least 10 mM. […] Approximately 30-50 Lone star tick larvae (Amblyomma americanum) were submerged into each well containing compounds. After a 30 minute immersion period, larvae were removed with a wide-bore pipette tip in 0.05 ml of fluid, dispensed into a commercial paper tissue biopsy bag which was sealed at the top with a plastic dialysis clip, inverted and allowed to air dry for 60 minutes. Bags containing larvae were then incubated at approximately 27 degrees Celsius and >90% relative humidity. After 24 hours, bags were opened, live and dead larvae were counted and percent larval mortality was calculated.
7 contains one chiral center, and is therefore a racemic mixture comprised of approximately 50% R- and 50% S-enantiomer. In vitro and surrogate animal (rat) studies were conducted to evaluate the biological activity of the R- and S-enantiomers of 7. For the in vitro study, larvae of the Lone star tick (Amblyomma americanum) were exposed to 17 (S-enantiomer) and 18 (R-enantiomer) using the larval immersion microassay at a concentration of no greater than 0.3 mM. Following exposure, larvae were removed, transferred to a tissue biopsy bag and incubated at approximately 27 degrees Celsius and >90% relative humidity. After 24 hours, biopsy bags were opened and the numbers of live and dead larvae were determined.

Setting [1] is: concentration of no greater than 0.3 mM, 30 minute immersion, counted after 24 hours.

Mortality data for 25 compounds are collected here from US9156860B2, “Boron-containing small molecules” (Anacor Pharmaceuticals, Inc., priority 2011, dated 2015).

Molecules are shown by their SMILES. Where two headings read alike, the source gives them in different places.

In the case of `CC1(C)OB(O)c2ccc(C3=NO[C@@](c4cc(Cl)c(F)c(Cl)c4)(C(F)(F)F)C3)cc21` [Compound 28, (S)-5-(5-(3,5-Dichloro-4-fluorophenyl)-5-(trifluoromethyl)-4,5-dihydroisoxazol-3-yl)-3,3-dimethylbenzo[c][1,2]oxaborol-1(3H)-ol], under “24 h”, the mortality at 300 µM is no less than 80%. Regarding `CC1(C)OB(O)c2ccc(C3=NOC(c4ccc(F)c(Cl)c4)(C(F)(F)F)C3)cc21` (stereo not shown) [Compound 19, 5-(5-(3-Chloro-4-fluorophenyl)-5-(trifluoromethyl)-4,5-dihydroisoxazol-3-yl)-3,3-dimethylbenzo[c][1,2]oxaborol-1(3H)-ol], the mortality at 300 µM under setting [1] was no less than 80%. Same read-out and setting: then `CC1(C)OB(O)c2ccc(C3=NOC(c4cc(Br)c(F)c(Br)c4)(C(F)(F)F)C3)cc21` (stereo not shown) [Compound 32, 5-(5-(3,5-Dibromo-4-fluorophenyl)-5-(trifluoromethyl)-4,5-dihydroisoxazol-3-yl)-3,3-dimethylbenzo[c][1,2]oxaborol-1(3H)-ol], with no less than 80%; and `CC1(C)OB(O)c2ccc(C3=NOC(c4cc(Br)cc(Br)c4)(C(F)(F)F)C3)cc21` (stereo not shown) [Compound 5, 5-(5-(3,5-Dibromophenyl)-5-(trifluoromethyl)-4,5-dihydroisoxazol-3-yl)-3,3-dimethyl-benzo[c][1,2]oxaborol-1(3H)-ol], with no less than 80%.

`CC1(C)OB(O)c2ccc(C3=NOC(c4cc(C(F)(F)F)cc(C(F)(F)F)c4)(C(F)(F)F)C3)cc21` (stereo not shown) [Compound 14, 5-(5-(3,5-Bis(trifluoromethyl)phenyl)-5-(trifluoromethyl)-4,5-dihydroisoxazol-3-yl)-3,3-dimethylbenzo[c][1,2]oxaborol-1(3H)-ol]: where the note is “24 h”, the mortality at 300 µM is no less than 80%. The same measure, in the same setting: then `CC1(C)OB(O)c2ccc(C3=NOC(c4cc(Cl)c(Cl)c(Cl)c4Cl)(C(F)(F)F)C3)cc21` (stereo not shown) [Compound 34, 3,3-Dimethyl-5-(5-(2,3,4,5-tetrachlorophenyl)-5-(trifluoromethyl)-4,5-dihydroisoxazol-3-yl)benzo[c][1,2]oxaborol-1(3H)-ol], with no less than 80%. Regarding `CC1(C)OB(O)c2ccc(C3=NOC(c4cc(Br)c(Cl)c(Br)c4)(C(F)(F)F)C3)cc21` (stereo not shown) [Compound 27, 5-(5-(3,5-Dibromo-4-chlorophenyl)-5-(trifluoromethyl)-4,5-dihydroisoxazol-3-yl)-3,3-dimethylbenzo[c][1,2]oxaborol-1(3H)-ol], under setting [1], the mortality at 300 µM was no less than 80%. As to `CC1(C)OB(O)c2cc(F)c(C3=NOC(c4cc(Cl)cc(Cl)c4)(C(F)(F)F)C3)cc21` (stereo not shown) [Compound 41], under “24 h”, the mortality at 300 µM is no less than 80%. Consider `CC1(C)OB(O)c2ccc(C3=NOC(c4ccc(F)c(C(F)(F)F)c4)(C(F)(F)F)C3)cc21` (stereo not shown) [Compound 24, 5-(5-(4-Fluoro-3-(trifluoromethyl)phenyl)-5-(trifluoromethyl)-4,5-dihydroisoxazol-3-yl)-3,3-dimethylbenzo[c][1,2]oxaborol-1(3H)-ol], for which the mortality at 300 µM under setting [1] is no less than 80%.

As to `CC1(C)OB(O)c2ccc(C3=NO[C@@](c4cc(Cl)cc(Cl)c4)(C(F)(F)F)C3)cc21` [Compound 3, (S)-5-(5-(3,5-dichlorophenyl)-5-(trifluoromethyl)-4,5-dihydroisoxazol-3-yl)-3,3-dimethyl benzo[c][1,2]oxaborol-1(3H)-ol], where the note is “24 h”, the mortality at 300 µM is no less than 80%. As to `OB1OCc2cc(C3=NOC(c4cc(Cl)cc(Cl)c4)(C(F)(F)F)C3)ccc21` (stereo not shown) [Compound 1, 5-(5-(3,5-Dichlorophenyl)-5-(trifluoromethyl)-4,5-dihydroisoxazol-3-yl)benzo[c][1,2]oxaborol-1(3H)-ol], the mortality at 300 µM (24 h) was no less than 80%.

As for `COc1c(Cl)cc(C2(C(F)(F)F)CC(c3ccc4c(c3)C(C)(C)OB4O)=NO2)cc1Cl` (stereo not shown) [Compound 22, 5-(5-(3,5-Dichloro-4-methoxyphenyl)-5-(trifluoromethyl)-4,5-dihydroisoxazol-3-yl)-3,3-dimethylbenzo[c][1,2]oxaborol-1(3H)-ol], under “24 h”, the mortality at 300 µM is no less than 80%. Turning to `CC1(C)OB(O)c2ccc(C3=NOC(c4cc(Cl)c(C(F)F)c(Cl)c4)(C(F)(F)F)C3)cc21` (stereo not shown) [Compound 11, 5-(5-(3,5-Dichloro-4-(difluoromethyl)phenyl)-5-(trifluoromethyl)-4,5-dihydroisoxazol-3-yl)-3,3-dimethyl-benzo[c][1,2]oxaborol-1(3H)-ol], for the setting “24 h”, the mortality at 300 µM was no less than 80%. Still for that read-out and setting: then `CC1(C)OB(O)c2ccc(C3=NOC(c4cc(Cl)c(F)c(Cl)c4F)(C(F)(F)F)C3)cc21` (stereo not shown) [Compound 35], with no less than 80%.

Turning to `CC1(C)OB(O)c2ccc(C3=NOC(c4cc(F)c(Cl)c(F)c4)(C(F)(F)F)C3)cc21` (stereo not shown) [Compound 30, 5-(5-(4-Chloro-3,5-difluorophenyl)-5-(trifluoromethyl)-4,5-dihydroisoxazol-3-yl)-3,3-dimethylbenzo[c][1,2]oxaborol-1(3H)-ol], the mortality at 300 µM under setting [1] was no less than 80%. As to `CC1(C)OB(O)c2ccc(C3=NOC(c4cc(Cl)c(Br)c(Cl)c4)(C(F)(F)F)C3)cc21` (stereo not shown) [Compound 21, 5-(5-(4-Bromo-3,5-dichlorophenyl)-5-(trifluoromethyl)-4,5-dihydroisoxazol-3-yl)-3,3-dimethylbenzo[c][1,2]oxaborol-1(3H)-ol], where the note is “24 h”, the mortality at 300 µM is no less than 80%. With `CC1(C)OB(O)c2ccc(C3=NOC(c4cc(F)c(F)c(Cl)c4)(C(F)(F)F)C3)cc21` (stereo not shown) [Compound 25, 5-(5-(3-Chloro-4,5-difluorophenyl)-5-(trifluoromethyl)-4,5-dihydroisoxazol-3-yl)-3,3-dimethylbenzo[c][1,2]oxaborol-1(3H)-ol], the mortality at 300 µM under setting [1] was no less than 80%.

For `CC1(C)OB(O)c2ccc(C3=NOC(c4cc(F)c(Cl)c(Cl)c4)(C(F)(F)F)C3)cc21` (stereo not shown) [Compound 26, 5-(5-(3,4-Dichloro-5-fluorophenyl)-5-(trifluoromethyl)-4,5-dihydroisoxazol-3-yl)-3,3-dimethylbenzo[c][1,2]oxaborol-1(3H)-ol], under setting [1], the mortality at 300 µM is no less than 80%. For `CC1(C)OB(O)c2ccc(C3=NOC(c4cc(Cl)cc(C(F)(F)F)c4)(C(F)(F)F)C3)cc21` (stereo not shown) [Compound 6], the mortality at 300 µM (24 h) was no less than 80%. Still for that read-out and setting: to `CC1(C)OB(O)c2ccc(C3=NOC(c4cc(Cl)cc(Cl)c4)(C(F)(F)F)C3)cc21` (stereo not shown) [Compound 2, 5-(5-(3,5-Dichlorophenyl)-5-(trifluoromethyl)-4,5-dihydroisoxazol-3-yl)-3,3-dimethyl-benzo[c][1,2]oxaborol-1(3H)-ol] belongs no less than 80%; to `Cc1c(Cl)cc(C2(C(F)(F)F)CC(c3ccc4c(c3)C(C)(C)OB4O)=NO2)cc1Cl` (stereo not shown) [Compound 9, 5-(5-(3,5-Dichloro-4-methylphenyl)-5-(trifluoromethyl)-4,5-dihydroisoxazol-3-yl)-3,3-dimethylbenzo[c][1,2]oxaborol-1(3H)-ol], no less than 80%.

On to `CC1(C)OB(O)c2ccc(C3=NOC(c4ccc(Cl)c(Cl)c4)(C(F)(F)F)C3)cc21` (stereo not shown) [Compound 23, 5-(5-(3,4-Dichlorophenyl)-5-(trifluoromethyl)-4,5-dihydroisoxazol-3-yl)-3,3-dimethyl-benzo[c][1,2]oxaborol-1(3H)-ol], for which, under setting [1], the mortality at 300 µM was no less than 80%. As to `CC1(C)OB(O)c2ccc(C3=NOC(c4cc(Cl)c(C(F)(F)F)c(Cl)c4)(C(F)(F)F)C3)cc21` (stereo not shown) [Compound 10, 5-(5-(3,5-Dichloro-4-(trifluoromethyl)phenyl)-5-(trifluoromethyl)-4,5-dihydroisoxazol-3-yl)-3,3-dimethyl-benzo[c][1,2]oxaborol-1(3H)-ol], the mortality at 300 µM (24 h) is no less than 80%. The same measure, in the same setting: then `CC1(C)OB(O)c2cc(F)c(C3=NOC(c4cc(Cl)c(Cl)c(Cl)c4)(C(F)(F)F)C3)cc21` (stereo not shown) [Compound 42, 6-Fluoro-3,3-dimethyl-5-(5-(3,4,5-trichlorophenyl)-5-(trifluoromethyl)-4,5-dihydroisoxazol-3-yl)benzo[c][1,2]oxaborol-1(3H)-ol], with no less than 80%. Regarding `CC1(C)OB(O)c2ccc(C3=NOC(c4cc(Cl)c(OC(F)(F)F)c(Cl)c4)(C(F)(F)F)C3)cc21` (stereo not shown) [Compound 12, 5-(5-(3,5-Dichloro-4-(trifluoromethoxy)phenyl)-5-(trifluoromethyl)-4,5-dihydro-isoxazol-3-yl)-3,3-dimethylbenzo[c][1,2]oxaborol-1(3H)-ol], the mortality at 300 µM (24 h) was no less than 80%.
